Experimental findings from publication PMC6994673, “Metabolism of multiple glycosaminoglycans by Bacteroides thetaiotaomicron is orchestrated by a versatile core genetic locus” (Nature Communications, 2020) are described below.

SMILES strings stand for the structures.

For this test, the target named is T1, BT3349-S1_27^4S-sulf (Bacteroides thetaiotaomicron, UniProt Q8A2F6).
T1 construct: gene BT_3349; pET28a, N- or C-terminal His6, E. coli; Talon and size exclusion; periplasmic, SpII signal peptide
T1 sequence (Q8A2F6 13-508): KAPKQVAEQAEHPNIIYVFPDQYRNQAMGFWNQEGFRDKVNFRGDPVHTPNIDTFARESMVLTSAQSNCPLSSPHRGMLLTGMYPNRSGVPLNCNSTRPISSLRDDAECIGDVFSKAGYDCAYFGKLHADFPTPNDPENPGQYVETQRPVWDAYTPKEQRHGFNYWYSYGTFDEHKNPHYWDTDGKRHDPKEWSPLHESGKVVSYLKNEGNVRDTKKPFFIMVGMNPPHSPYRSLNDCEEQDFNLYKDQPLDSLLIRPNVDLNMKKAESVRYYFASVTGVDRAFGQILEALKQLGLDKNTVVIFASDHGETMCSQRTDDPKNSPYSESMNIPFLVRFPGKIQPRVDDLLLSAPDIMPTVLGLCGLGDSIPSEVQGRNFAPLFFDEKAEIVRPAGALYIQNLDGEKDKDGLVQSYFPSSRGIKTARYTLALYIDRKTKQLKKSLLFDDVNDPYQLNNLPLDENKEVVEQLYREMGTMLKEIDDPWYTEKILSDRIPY
The experiment in a line: continuous linked assay with GH88, loss of absorbance at […] nm. As to conditions: 50 mM MES pH 6.0 or Bis-Tris propane pH 6.5, 150 mM NaCl, 37 °C; kinetic parameters only in supplement, kind not told. The class given is biochemical.

Consider `CC(=O)N[C@H]1C(O)O[C@H](CO)[C@H](OS(=O)(=O)O)[C@@H]1O[C@@H]1OC(C(=O)O)=C[C@H](O)[C@H]1O` (stereo partly shown) [Δ4,5UA-GalNAc4S], for which the kinetic parameters entry was “monitored via a continuous linked assay using BT3334^GH88 and UA-GalNAc4S as the substrate”.
